Measurements: patent US20260083865A1, “PROSTATE SPECIFIC MEMBRANE ANTIGEN (PSMA) LIGANDS AND USE THEREOF” (priority 2022, published 2026)
Like-named read-outs stand apart in the source and are kept apart here. Numbered stars: 1 amine (or outer) side, 2 acyl side, 3 side chain; on linkers, the order of the positions; unused ones are H or OH. Bridge positions count the residues as written; N and C are the ends. Square brackets hold non-standard residues; d marks the D form. Side chains are listed from the residue outwards. Peptide text beside a SMILES is read from it. * marks the point of attachment. TtdsdLys(DOTA)NH2 = NC(=O)[C@@H](CCCCNC(=O)CN1CCN(CC(=O)O)CCN(CC(=O)O)CCN(CC(=O)O)CC1)NC(=O)CCC(=O)NCCCOCCOCCOCCCN*; DOTA = O=C(O)CN1CCN(CC(=O)O)CCN(CC(=O)*)CCN(CC(=O)O)CC1; Phe(4-SO3H) = N[C@@H](Cc1ccc(S(=O)(=O)O)cc1)C(=O)O; Phe(3-Cl) = N[C@@H](Cc1cccc(Cl)c1)C(=O)O; Phe(4-Cl) = N[C@@H](Cc1ccc(Cl)cc1)C(=O)O; X4 = O=C(CN1CCC(N[*:1])CC1)[*:2]; X1 = O=C(CC1CCN([*:1])CC1)[*:2]; Cit = NC(=O)NCCC[C@H](N)C(=O)O; Tle = CC(C)(C)[C@H](N)C(=O)O; 4Abz = Nc1ccc(C(=O)O)cc1; AEEA = NCCOCCOCC(=O)O; NHCH2CH2NHMe = CNCCN*; Aib = CC(C)(N)C(=O)O; Sar = CNCC(=O)O

What was measured:
[1] = target: T1, Fc-fusion protein of human PSMA (hPSMA-Fc) (Homo sapiens, UniProt Q04609); assay: Surface plasmon resonance assay (Biacore T200, single cycle kinetic); assay type: binding; details: hPSMA-Fc, 25° C., read-out: pKD CAT (converted)
T1 construct: purchased Acro Biosystems PSA-H5264
Outline: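 hPSMA-Fc was captured (~1000 RU) on an Fc-binding-peptide CM5 chip, and compounds were run in single cycle kinetic mode at 25° C in HBST with 0.1% DMSO. Double-blank-corrected sensorgrams were fitted to a 1:1 Langmuir model to give KD, reported as pKD.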

[2] = target: T2, PSMA-expressing C4-2 cells (Homo sapiens, UniProt Q04609); assay: FACS binding assay (competition with 50 nM PSM-0183); details: read-out: pIC50 [C4-2] CAT (converted)
T2 construct: PSMA-expressing C4-2 cells (ATCC, Cat. No. CRL-3314) were cultured in RPMI-1640; host or cells: C4-2 cells
Outline: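 C4-2 cells were incubated 1 h at 4 °C with 50 nM AF488-labelled peptide PSM-0183 plus increasing test compound concentrations, then washed twice in ice-cold buffer. Median fluorescence in the AF488 channel was read by flow cytometry. IC50/pIC50 was derived by 4PL fitting of MFI versus concentration.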

[3] = pKD category for PSMA SPR activity assay
[4] = pIC50 category of FACS binding, C4-2 cells
[5] = SPR, single cycle kinetic, category
[6] = FACS binding, C4-2 cells, competition with 50 nM PSM-0183, category

T2 sequence (Q04609 whole entry): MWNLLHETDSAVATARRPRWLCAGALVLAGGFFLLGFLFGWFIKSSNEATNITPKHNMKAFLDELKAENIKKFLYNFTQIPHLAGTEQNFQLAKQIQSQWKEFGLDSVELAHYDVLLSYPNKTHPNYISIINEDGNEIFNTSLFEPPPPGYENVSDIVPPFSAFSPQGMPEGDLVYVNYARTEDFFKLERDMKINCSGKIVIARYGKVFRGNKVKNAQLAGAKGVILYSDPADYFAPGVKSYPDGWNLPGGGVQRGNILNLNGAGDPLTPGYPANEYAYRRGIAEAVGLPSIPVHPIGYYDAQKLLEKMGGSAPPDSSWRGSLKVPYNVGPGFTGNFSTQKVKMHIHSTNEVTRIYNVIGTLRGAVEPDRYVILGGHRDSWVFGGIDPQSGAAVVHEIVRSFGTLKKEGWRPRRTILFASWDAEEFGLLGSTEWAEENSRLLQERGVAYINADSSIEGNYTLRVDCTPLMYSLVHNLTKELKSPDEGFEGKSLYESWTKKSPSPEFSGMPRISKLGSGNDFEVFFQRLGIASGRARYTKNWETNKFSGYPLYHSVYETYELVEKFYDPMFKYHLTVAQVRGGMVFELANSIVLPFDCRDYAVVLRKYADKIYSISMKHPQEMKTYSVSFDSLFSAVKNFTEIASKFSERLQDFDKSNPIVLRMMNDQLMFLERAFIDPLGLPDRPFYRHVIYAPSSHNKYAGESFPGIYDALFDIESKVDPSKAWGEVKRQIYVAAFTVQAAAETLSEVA
T1 sequence (Q04609 44-750 limits assumed): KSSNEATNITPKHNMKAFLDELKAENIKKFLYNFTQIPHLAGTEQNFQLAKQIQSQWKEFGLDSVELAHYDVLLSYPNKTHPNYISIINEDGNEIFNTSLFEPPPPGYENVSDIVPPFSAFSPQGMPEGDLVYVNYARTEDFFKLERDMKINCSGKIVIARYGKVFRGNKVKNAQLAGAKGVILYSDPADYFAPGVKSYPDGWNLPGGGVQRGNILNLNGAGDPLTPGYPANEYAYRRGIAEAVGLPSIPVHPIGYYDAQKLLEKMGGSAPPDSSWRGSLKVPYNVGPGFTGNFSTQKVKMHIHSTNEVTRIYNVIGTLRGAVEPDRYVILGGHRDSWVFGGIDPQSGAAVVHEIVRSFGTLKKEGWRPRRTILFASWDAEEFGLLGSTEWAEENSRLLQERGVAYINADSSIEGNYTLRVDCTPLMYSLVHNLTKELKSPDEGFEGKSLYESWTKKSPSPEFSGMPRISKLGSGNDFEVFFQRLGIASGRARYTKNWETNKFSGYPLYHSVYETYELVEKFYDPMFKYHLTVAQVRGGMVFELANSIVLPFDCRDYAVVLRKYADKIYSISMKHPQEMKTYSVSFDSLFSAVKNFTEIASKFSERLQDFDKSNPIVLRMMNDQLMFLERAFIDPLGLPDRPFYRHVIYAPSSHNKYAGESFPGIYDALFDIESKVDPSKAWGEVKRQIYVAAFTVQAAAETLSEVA

| Kd [1, 3] [µM] | IC50 [2, 4] [µM] | SMILES | further results |
| --- | --- | --- | --- |
|  |  | CC(=O)N[C@H](C(=O)NC(C)(C)C(=O)N[C@@H](Cc1cccc(Cl)c1)C(=O)N[C@H]1CSSC[C@@H](C(=O)N[C@H](C(=O)N[C@H](C(N)=O)[C@@H](C)O)C(C)(C)C)NC(=O)[C@H](CC(N)=O)NC(=O)[C@H](CCCCNC(=O)COCCOCCNC(=O)CN2CCN(CC(=O)O)CCN(CC(=O)O)CCN(CC(=O)O)CC2)NC(=O)[C@H](CCCNC(N)=O)NC(=O)[C@H](CCCCN)NC1=O)[C@@H](C)O [PSM-0284, Ac-Thr-Aib-Mcf-[Cys-Lys-Cit-Lys(DOTA-020c)-Asn-Cys]-Tle-Thr-NH2] (Ac-T[Aib][Phe(3-Cl)]CK[Cit]K([AEEA-DOTA])NC[Tle]T-NH2; disulfide 4-9) | Kd ([1]; PSMA SPR assay, pKD category): 0.0126 to 0.126 µM; IC50 ([2]; FACS binding, PSMA-expressing C4-2 cells, pIC50 category): < 0.2 µM |
|  |  | CC(=O)N[C@H](C(=O)NC(C)(C)C(=O)N[C@@H](Cc1ccccc1)C(=O)N[C@H]1CSSC[C@@H](C(=O)N[C@H](C(=O)N[C@H](C(N)=O)[C@@H](C)O)C(C)(C)C)NC(=O)[C@H](CC(N)=O)NC(=O)CN(C)C(=O)[C@H](CCCNC(=N)N)NC(=O)[C@H](CCCCN)NC1=O)[C@@H](C)O [PSM-0232, Ac-Thr-Aib-Phe-[Cys-Lys-Arg-Nmg-Asn-Cys]-Tle-Thr-NH2] (Ac-T[Aib]FCKR[Sar]NC[Tle]T-NH2; disulfide 4-9) | Kd [1, 5]: < 0.0126 µM; IC50 [2, 6]: < 0.2 µM |
| 0.0126 to 0.126 | < 0.2 | CNCCNC(=O)[C@@H](NC(=O)[C@@H]1CSSC[C@H](NC(=O)[C@H](Cc2ccc(Cl)cc2)NC(=O)C(C)(C)NC(=O)[C@@H](NC(=O)CC2CCN(C(=O)CN3CCN(CC(=O)O)CCN(CC(=O)O)CCN(CC(=O)O)CC3)CC2)[C@@H](C)O)C(=O)N[C@@H](CCCCN)C(=O)N[C@@H](CCCNC(=N)N)C(=O)NC(C)(C)C(=O)N[C@@H](CC(N)=O)C(=O)N1)C(C)(C)C [PSM-0456, DOTA-Cmp-Thr-Aib-Pcf-[Cys-Lys-Arg-Aib-Asn-Cys]-Tle-en(Me)] ({DOTA}-[X1]T[Aib][Phe(4-Cl)]CKR[Aib]NC[Tle]-NHCH2CH2NHMe; disulfide 5-10) |  |
| > 0.501 | > 3.16 | C[C@@H](O)[C@H](NC(=O)[C@@H](NC(=O)[C@@H]1CSSC[C@H](NC(=O)[C@H](Cc2ccc(S(=O)(=O)O)cc2)NC(=O)C(C)(C)NC(=O)[C@@H](NC(=O)CC2CCN(C(=O)CN3CCN(CC(=O)O)CCN(CC(=O)O)CCN(CC(=O)O)CC3)CC2)[C@@H](C)O)C(=O)N[C@@H](CCCCN)C(=O)N[C@@H](CCCNC(=N)N)C(=O)NC(C)(C)C(=O)N[C@@H](CC(N)=O)C(=O)N1)C(C)(C)C)C(N)=O [PSM-0386, DOTA-Cmp-Thr-Aib-Fso-[Cys-Lys-Arg-Aib-Asn-Cys]-Tle-Thr-NH2] ({DOTA}-[X1]T[Aib][Phe(4-SO3H)]CKR[Aib]NC[Tle]T-NH2; disulfide 5-10) |  |
| < 0.0126 | < 0.2 | C[C@@H](O)[C@H](NC(=O)[C@@H](NC(=O)[C@@H]1CSSC[C@H](NC(=O)[C@H](Cc2ccccc2)NC(=O)C(C)(C)NC(=O)[C@@H](NC(=O)CN2CCC(NC(=O)CN3CCN(CC(=O)O)CCN(CC(=O)O)CCN(CC(=O)O)CC3)CC2)[C@@H](C)O)C(=O)N[C@@H](CCCCN)C(=O)N[C@@H](CCCNC(=N)N)C(=O)NC(C)(C)C(=O)N[C@@H](CC(N)=O)C(=O)N1)C(C)(C)C)C(N)=O [PSM-0543, DOTA-APAc-Thr-Aib-Phe-[Cys-Lys-Arg-Aib-Asn-Cys]-Tle-Thr-NH2] ({DOTA}-[X4]T[Aib]FCKR[Aib]NC[Tle]T-NH2; disulfide 5-10) |  |
|  |  | CC(=O)N[C@H](C(=O)N[C@@H](C)C(=O)N[C@@H](Cc1ccccc1)C(=O)N[C@H]1CSSC[C@@H](C(=O)N[C@H](C(=O)N[C@H](C(=O)N[C@@H](CC(=O)O)C(=O)NCCCOCCOCCOCCCNC(=O)CCC(=O)N[C@H](CCCCNC(=O)CN2CCN(CC(=O)O)CCN(CC(=O)O)CCN(CC(=O)O)CC2)C(N)=O)[C@@H](C)O)C(C)(C)C)NC(=O)[C@H](CC(N)=O)NC(=O)[C@H](C)NC(=O)[C@H](CCCNC(=N)N)NC(=O)[C@H](CCCCN)NC1=O)[C@@H](C)O [PSM-0266, Ac-Thr-Ala-Phe-[Cys-Lys-Arg-Ala-Asn-Cys]-Tle-Thr-Asp-Ttds-lys(DOTA)-NH2] (Ac-TAFCKRANC[Tle]TD-{TtdsdLys(DOTA)NH2}; disulfide 4-9) | Kd [1, 5]: 0.0126 to 0.126 µM; IC50 [2, 6]: < 0.2 µM |

| SMILES | Kd [1, 3] [µM] | IC50 [2, 4] [µM] | further results |
| --- | --- | --- | --- |
| C[C@@H](O)[C@H](NC(=O)[C@@H](NC(=O)[C@@H]1CSSC[C@H](NC(=O)[C@H](Cc2ccccc2)NC(=O)C(C)(C)NC(=O)[C@@H](NC(=O)c2ccc(NC(=O)CN3CCN(CC(=O)O)CCN(CC(=O)O)CCN(CC(=O)O)CC3)cc2)[C@@H](C)O)C(=O)N[C@@H](CCCCN)C(=O)N[C@@H](CCCNC(=N)N)C(=O)NC(C)(C)C(=O)N[C@@H](CC(N)=O)C(=O)N1)C(C)(C)C)C(N)=O [PSM-0448, DOTA-Pab-Thr-Aib-Phe-[Cys-Lys-Arg-Aib-Asn-Cys]-Tle-Thr-NH2] ({DOTA-4Abz}-T[Aib]FCKR[Aib]NC[Tle]T-NH2; disulfide 4-9) | < 0.0126 | < 0.2 |  |
